Reference: patent publication US20210395210A1, “INHIBITION OF BACTERIAL CHAPERONIN SYSTEMS” (THE TRUSTEES OF INDIANA UNIVERSITY, priority 2018, published 2021)

Tests used:
E. coli GroEL/ES [1] = biological target: T1, E. coli GroEL/ES (Escherichia coli, UniProt P0A6F5); experiment: GroEL/ES-mediated dMDH refolding assay; assay type: biochemical; conditions: for inhibition in the GroEL/ES-mediated refolding assays (in words): dMDH and dRho refolding assays; for selectivity for E. coli GroEL/ES over human HSP60/10 (in words): GroEL/ES-dMDH vs HSP60/10-dMDH IC50
T1 construct: made in house; host or cells: GroEL in E. coli DH5α; GroES in E. coli BL21 (DE3)
T1 sequence (P0A6F5 2-548): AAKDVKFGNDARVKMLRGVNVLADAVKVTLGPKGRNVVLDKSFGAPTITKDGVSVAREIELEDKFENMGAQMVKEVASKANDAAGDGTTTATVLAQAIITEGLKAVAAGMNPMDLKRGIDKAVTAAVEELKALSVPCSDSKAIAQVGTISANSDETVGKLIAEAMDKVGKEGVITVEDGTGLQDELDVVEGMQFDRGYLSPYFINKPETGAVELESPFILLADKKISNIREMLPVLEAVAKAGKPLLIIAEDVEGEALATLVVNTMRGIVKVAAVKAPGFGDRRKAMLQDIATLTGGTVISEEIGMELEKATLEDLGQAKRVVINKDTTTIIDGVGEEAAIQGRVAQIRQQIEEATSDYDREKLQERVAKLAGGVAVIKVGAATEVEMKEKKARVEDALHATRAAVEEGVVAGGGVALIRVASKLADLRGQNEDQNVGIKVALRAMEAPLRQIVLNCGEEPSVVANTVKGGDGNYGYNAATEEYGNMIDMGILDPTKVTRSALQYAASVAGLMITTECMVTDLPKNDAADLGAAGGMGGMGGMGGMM
Protocol: Reagent preparation: For these assays, four primary reagent stocks were prepared: 1) GroEUES-dMDH or HSP60/10-dMDH binary complex stock; 2) ATP initiation stock; 3) EDTA quench stock; 4) MDH enzymatic assay stock. Denatured MDH (dMDH) was prepared by 2-fold dilution of MDH (5 mg/ml, soluble pig heart MDH from Roche, product #10127248001) with denaturant buffer (7 M guanidine-HCl, 200 mM Tris, pH 7.4, and 50 mM DTT). MDH was completely denatured by incubating at room temperature for 45 min. The binary complex solutions were prepared by slowly adding the dMDH stock to a stirring stock with GroEL (or HSP60) in folding buffer (50 mM Tris-HCl, pH 7.4, 50 mM KCl, 10 mM MgCl2, and 1 mM DTT), followed by addition of GroES (or HSP10). The binary complex stocks were prepared immediately prior to dispensing into the assay plates and had final protein concentrations of 83.3 nM GroEL (Mr 800 kDa) or HSP60 (Mr 400 kDa), 100 nM GroES or HSP10 (Mr 70 kDa), and 20 nM dMDH in folding buffer. For the ATP initiation stock, ATP solid was diluted into folding buffer to a final concentration of 2.5 mM. Quench solution contained 600 mM EDTA (pH 8.0). The MDH enzymatic assay stock consisted of 20 mM sodium mesoxalate and 2.4 mM NADH in reaction buffer (50 mM Tris-HCl, pH 7.4, 50 mM KCl, and 1 mM DTT).
Assay Protocol: First, 30 μL aliquots of the GroEL/ES-dMDH or HSP60/10-dMDH binary complex stocks were dispensed into clear, 384-well polystyrene plates. […] The chaperonin-mediated refolding cycles were initiated by addition of 20 μL of ATP stock (reagent concentrations during refolding cycle: 50 nM GroEL or HSP60, 60 nM GroES or HSP10, 12 nM dMDH, 1 mM ATP, and compounds of 100 μM to 46 nM, 3-fold dilution series). The refolding reactions were incubated at 37° C. […] Next, the assay was quenched by addition of 10 μL of the EDTA to final concentration of 100 mM. […] A340 nm measurements were recorded at 0.5 minutes (start point) and at successive time points until the amount of NADH consumed reached ˜90% (end point, generally between 20-35 minutes). The differences between the start and end point A340 values were used to calculate the % inhibition of the GroEL/ES or HSP60/10 machinery by the compounds. […] Results presented represent the averages of IC50 values obtained from at least quadriplicate (duplicate of duplicate) replicates.
(§1) After generating the compound library, we next employed a series of well-established biochemical assays to evaluate compound inhibitory effects against the GroEUES chaperonin system (See FIG. 6 and FIG. 7). We used E. coli GroEUES as the surrogate chaperonin system for refolding of the reporter enzymes malate dehydrogenase (MDH) and rhodanese (Rho). Briefly, binary complexes are formed between GroEL and denatured MDH or Rho, which are then refolded to their native states upon addition of ATP and the GroES co-chaperonin. Enzymatic activities of refolded native MDH or Rho act as coupled reporters of GroEUES refolding functions since in the presence of chaperonin inhibitors, no functional reporter enzymes are generated.

E. coli GroEL/ES [2] = biological target: T1, E. coli GroEL/ES; experiment: GroEL/ES-mediated dRho refolding assay; assay type: biochemical; conditions: for log(IC50) GroEL/ES-dRho Refolding: log of IC50 (μM scale), with standard deviation
Protocol: Reagent preparation: For this assay, five primary reagent stocks were prepared: 1) GroEUES-dRho binary complex stock; 2) ATP initiation stock; 3) thiocyanate enzymatic assay stock; 4) formaldehyde quench stock; 5) ferric nitrate reporter stock. Denatured rhodanese (dRho) was prepared by 3-fold dilution of rhodanese (Roche product #R1756, diluted to 10 mg/mL with H2O) with denaturant buffer (12 M Urea, 50 mM Tris-HCl, pH 7.4, and 10 mM DTT). Rhodanese was completely denatured by incubating at room temperature for 45 min. The binary complex solution was prepared by slowly adding the dRho stock to a stirring stock of concentrated GroEL in modified folding buffer (50 mM Tris-HCl, pH 7.4, 50 mM KCl, 10 mM MgCl2, 5 mM Na2S2O3, and 1 mM DTT). The solution was centrifuged at 16,000×g for 5 minutes, and the supernatant was collected and added to a solution of GroES in modified folding buffer to give final protein concentrations of 100 nM GroEL, 120 nM GroES, and 80 nM dRho. The binary complex stock was prepared immediately prior to use. For the ATP initiation stock, ATP solid was diluted into modified folding buffer to a final concentration of 2.0 mM. The thiocyanate enzymatic assay stock was prepared to contain 70 mM KH2PO4, 80 mM KCN, and 80 mM Na2S2O3 in water. The formaldehyde quench solution contained 30% formaldehyde in water. The ferric nitrate reporter stock contained 8.5% w/v Fe(NO3)3 and 11.3% v/v HNO3 in water.
Assay Protocol: First, 10 μL aliquots of the GroEL/ES-dRho complex stock were dispensed into clear, 384-well polystyrene plates. […] The chaperonin-mediated refolding cycle was initiated by addition of 10 μL of ATP stock (reagent concentrations during refolding cycle: 50 nM GroEL, 60 nM GroES, 40 nM dRho, 1 mM ATP, and compounds of 250 μM to 114 nM, 3-fold dilution series). After incubating for 45 minutes at 37° C. for the refolding cycle, 30 μL of the thiocyanate enzymatic assay stock was added and incubated for 60 min at R.T. for the refolded rhodenase enzymatic reporter reaction. The reporter reaction was quenched by adding 10 μL of the formaldehyde quench stock, and then 40 μL of the ferric nitrate reporter stock was added to quantify the amount of thiocyanate produced during the enzymatic reporter reaction, which is proportional to the amount of dRho refolded by GroEL/ES. After incubating at R.T. for 15 min, the absorbance by Fe(SCN)3 was measured at 460 nm using a Molecular Devices SpectraMax Plus384 microplate reader. A second set of baseline control plates were prepared analogously, but without GroEL/ES-dRho protein binary solution, to correct for possible interference from compound absorbance or turbidity. […] Results presented represent the averages of IC50 values obtained from at least quadriplicate (duplicate of duplicate) replicates.
as §1

[3] = log of IC50 (μM scale), with standard deviation
[4] = read-out: Biochemical Assay IC50 GroEL/ES-dMDH refolding
[5] = read-out: Biochemical Assay IC50 GroEL/ES-dRho Refolding

| Compound | IC50 (E. coli GroEL/ES [1]) | log(IC50) GroEL/ES-dMDH Refolding (E. coli GroEL/ES [1]; [3]) | IC50 (E. coli GroEL/ES [2]) | log(IC50) GroEL/ES-dRho Refolding (E. coli GroEL/ES [2]) | inhibition in the GroEL/ES-mediated refolding assays (in words) (E. coli GroEL/ES [1]) | IC50 (E. coli GroEL/ES [1]; log of IC50 (μM scale), with standard deviation, read-out: log(IC50) GroEL/ES-dMDH Refolding (converted)) | IC50 (E. coli GroEL/ES [1]; [4]) | IC50 (E. coli GroEL/ES [2]; [5]) | selectivity for E. coli GroEL/ES over human HSP60/10 (in words) (E. coli GroEL/ES [1]) |
| --- | --- | --- | --- | --- | --- | --- | --- | --- | --- |
| O=C(Nc1ccccc1)c1cccc(Br)c1 [Compound 27, 3-Bromo-N-phenylbenzamide] | > 100 µM | >2 | > 100 µM | >2 |  |  |  |  |  |
| O=C(Nc1ccc(Oc2ccc(Cl)cc2)c(Cl)c1)c1cc(I)cc(I)c1O [Rafoxanide, rafoxanide, reference compound] |  |  |  | 0.34 ± 0.11 | potent GroEUES inhibitors | 4.37 µM | 4.3 µM | 2.2 µM |  |
| O=C(Nc1ccc(Sc2nc3ccccc3s2)c(Cl)c1)c1ccccc1 [Compound 19, N-(4-(Benzo[d]thiazol-2-ylthio)-3-chlorophenyl)benzamide] | > 100 µM |  | > 100 µM |  |  |  |  |  |  |
| O=C(Nc1cccc(Cl)c1)c1cc(Br)cc(Br)c1 [Compound 23, 3,5-Dibromo-N-(3-chlorophenyl)benzamide] | > 100 µM | >2 | > 100 µM | >2 |  |  |  |  |  |
| COc1ccc(Br)cc1C(=O)Nc1cccc(Cl)c1 [Compound 39, 5-Bromo-N-(3-chlorophenyl)-2-methoxybenzamide] | > 100 µM | >2 | > 100 µM | >2 |  |  |  |  |  |
| O=C(Nc1ccccc1)c1cccc(Br)c1O [Compound 14, 3-Bromo-2-hydroxy-N-phenylbenzamide] | > 100 µM | >2 | > 100 µM | >2 |  |  |  |  |  |
| COc1c(Br)cc(Br)cc1C(=O)Nc1ccc(Sc2nc3ccccc3s2)c(Cl)c1 [Compound 29, N-(4-(Benzo[d]thiazol-2-ylthio)-3-chlorophenyl)-3,5-dibromo-2-methoxybenzamide] | > 100 µM |  | > 100 µM |  |  |  |  |  |  |
| CN[C@H](CC(C)C)C(=O)N[C@H]1C(=O)N[C@@H](CC(N)=O)C(=O)N[C@H]2C(=O)N[C@H]3C(=O)N[C@H](C(=O)N[C@H](C(=O)O)c4cc(O)cc(O)c4-c4cc3ccc4O)[C@H](O)c3ccc(c(Cl)c3)Oc3cc2cc(c3O[C@@H]2O[C@H](CO)[C@@H](O)[C@H](O)[C@H]2O[C@H]2C[C@](C)(N)[C@H](O)[C@H](C)O2)Oc2ccc(cc2Cl)[C@H]1O [Vancomycin, vancomycin, reference compound] | > 100 µM | >2 | > 100 µM | >2 |  |  |  |  |  |
| COc1c(Br)cccc1C(=O)Nc1ccccc1 [Compound 42, 3-Bromo-2-methoxy-N-phenylbenzamide] | > 100 µM | >2 | > 100 µM | >2 |  |  |  |  |  |
| O=C(Nc1ccccc1)c1cc(Br)cc(Br)c1O [Compound 13, 3,5-Dibromo-2-hydroxy-N-phenylbenzamide] |  | 1.79 ± 0.10 | > 100 µM | >2 |  |  | 61 µM |  |  |
| O=C(Nc1ccc(Sc2nc3ccccc3s2)cc1)c1cc(Br)cc(Br)c1 [Compound 20, N-(4-(Benzo[d]thiazol-2-ylthio)phenyl)-3,5-dibromobenzamide] | > 100 µM |  | > 100 µM |  |  |  |  |  |  |
| O=C(Nc1ccc(Sc2nc3ccccc3s2)c(Cl)c1)c1ccccc1O [Compound 4, N-(4-(Benzo[d]thiazol-2-ylthio)-3-chlorophenyl)-2-hydroxybenzamide] |  | 1.62 ± 0.32 |  | 1.80 ± 0.27 |  |  | 42 µM | 63 µM | selectively inhibit E. coli GroEUES over human HSP60/10 |
| COc1ccccc1C(=O)Nc1cccc(Cl)c1 [Compound 40, N-(3-Chlorophenyl)-2-methoxybenzamide] | > 100 µM | >2 | > 100 µM | >2 |  |  |  |  |  |
| COc1ccccc1C(=O)Nc1ccccc1 [Compound 44, 2-Methoxy-N-phenylbenzamide] | > 100 µM | >2 | > 100 µM | >2 |  |  |  |  |  |
| O=C(Nc1ccc(Sc2nc3ccccc3s2)c(Cl)c1)c1cc(Br)cc(Br)c1 [Compound 17, N-(4-(Benzo[d]thiazol-2-ylthio)-3-chlorophenyl)-3,5-dibromobenzamide] | > 100 µM |  | > 100 µM |  |  |  |  |  |  |
| O=C(Nc1ccc(Sc2nc3ccccc3s2)cc1)c1cc(Br)ccc1O [Compound 7, N-(4-(Benzo[d]thiazol-2-ylthio)phenyl)-5-bromo-2-hydroxybenzamide] |  | 1.58 ± 0.34 |  | 1.48 ± 0.11 | moderate to potent inhibitors |  | 38 µM | 30 µM | selectively inhibit E. coli GroEUES over human HSP60/10 |
| O=C(Nc1cccc(Cl)c1)c1cc(Br)cc(Br)c1O [Compound 9, 3,5-Dibromo-N-(3-chlorophenyl)-2-hydroxybenzamide] |  | 1.38 ± 0.15 |  | 1.67 ± 0.04 |  |  | 24 µM | 47 µM |  |
| O=C(Nc1ccc(Sc2nc3ccccc3s2)c(Cl)c1)c1cccc(Br)c1 [Compound 18, N-(4-(Benzo[d]thiazol-2-ylthio)-3-chlorophenyl)-3-bromobenzamide] | > 100 µM |  | > 100 µM |  |  |  |  |  |  |
